Here are results for nine molecules from PubChem BioAssay (NCI).

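How tested: cells in 96-well plates exposed to compound for 48 hours at five concentrations. The concentration for 50% growth inhibition is given as GI50. At the TGI there is no net growth.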

What all share (assay): NCI tumour cell line growth inhibition, 48 h
In assay [1] the test system is BT-549 breast.
Assay [2] has as its system CCRF-CEM leukemia.
In assay [3] the test system is SK-OV-3 ovarian.
In assay [4] the test system is U251 CNS.
Assay [5] deals with ACHN renal.
The subject of assay [6] is IGROV1 ovarian.
In assay [7] the test system is UO-31 renal.
The subject of assay [8] is NCI-H23 lung.

Take `COc1cc2nc(Cl)nc(Nc3cccc(C(=O)/C=C/c4ccccc4)c3)c2cc1OC`: the GI50 in assay [1] was 2.36 µM; in assay [2] it was 2.45 µM; in assay [3], 7.96 µM; in assay [4], 2.97 µM; in assay [5], 3.51 µM; in assay [6] it was 4.45 µM. In addition, the GI50 in assay [7] is 17.8 µM; in assay [8], 6.63 µM. Also, the TGI was 7.83 µM in assay [1]; greater than 100 µM in assay [2]; 51.7 µM in assay [3]; greater than 38.1 µM in assay [4]; greater than 100 µM in assay [5]; 42.9 µM in assay [6]. The TGI in assay [7] and in assay [8] was greater than 100 µM each time.
For `NC(=O)[C@H]1CCN(c2ncnc(N)c2F)C[C@@H]1N1CCC[C@@H](Nc2cc(Cl)cc(C(F)(F)F)c2)C1=O`, the GI50 in assay [1] is 21.4 µM; in assay [2] it was 24.5 µM; in assay [3] it was 6.33 µM; in assay [4], 26.3 µM; in assay [5] it was 7 µM; in assay [6], 5.12 µM. Besides, the GI50 in assay [7] is 9.16 µM; in assay [8], 20.8 µM. The TGI in assay [1] is 51.1 µM; in assay [2], greater than 100 µM; in assay [3] it was 56.3 µM; in assay [4] it was greater than 100 µM; in assay [5], 76.3 µM; in assay [6], greater than 100 µM. For the same molecule, the values for the TGI in assay [7] and in assay [8] were greater than 100 µM and 65.8 µM, respectively.
Turning to `O=C(CCN1CCCC1)Nc1ccc2c(NCc3ccc(F)cc3)c3ccccc3nc2c1`, the GI50 in assay [1] is 1.2 µM; in assay [2], 0.463 µM; in assay [3], 0.849 µM; in assay [4], 0.462 µM; in assay [5], 0.483 µM; in assay [6], 0.363 µM. For the same molecule, the GI50 was 1.33 µM in assay [7] and 0.413 µM in assay [8]. Besides, the TGI turned out to be 2.67 µM in assay [1]; 13.4 µM in assay [2]; 3.5 µM in assay [3]; 1.88 µM in assay [4]; 1.87 µM in assay [5]; 1.5 µM in assay [6]. Besides, the TGI in assay [7] was 3.09 µM; in assay [8] it was 1.67 µM.
With `CCn1c(-c2nonc2N)nc2cncc(C(=O)N3CCNCC3)c21`, the GI50 in assay [1], in assay [2], in assay [3], in assay [4], in assay [5] and in assay [6] was greater than 25 µM throughout. Moreover, the GI50 in assay [7] and in assay [8] was greater than 25 µM throughout. Further, the TGI in assay [1], in assay [2], in assay [3], in assay [4], in assay [5] and in assay [6] was greater than 25 µM each time. Further, the TGI in assay [7] and in assay [8] was greater than 25 µM in each case.
In the case of `O=C1c2ccccc2C(=O)N1CC1(C(=O)O)NCCS1(=O)=O` (stereo not given), the TGI in assay [1], in assay [2], in assay [3], in assay [4], in assay [5] and in assay [6] was greater than 100 µM throughout. Further, the TGI in assay [7] and in assay [8] was greater than 100 µM in each case.
As to `CC(C)(O)c1ccc(N2CCN(c3nnc(Cc4ccccc4)c4ccccc34)CC2)nc1`, the GI50 in assay [1] was 6.28 µM; in assay [2], 8.26 µM; in assay [3], 18.7 µM; in assay [4], 13.2 µM; in assay [5], 11.3 µM; in assay [6] it was 12.1 µM. Further, the GI50 was 3.49 µM in assay [7] and 5.68 µM in assay [8]. In addition, the TGI in assay [1] is 24 µM; in assay [2], greater than 93 µM; in assay [3], 61.9 µM; in assay [4], 37.3 µM; in assay [5], 47.7 µM; in assay [6], 28.4 µM. Further, the TGI in assay [7] was 19.5 µM; in assay [8], 28.4 µM.
For `CC1=C(C(=O)OCc2ccccc2)C(c2ccc3c(c2)OCO3)n2c(nc3ccccc32)N1` (stereo not given), the TGI in assay [1], in assay [2], in assay [3], in assay [4], in assay [5] and in assay [6] was greater than 100 µM throughout. Also, the TGI in assay [7] is greater than 79.5 µM; in assay [8] it was greater than 100 µM. Moreover, the GI50 in assay [2] is 0.418 µM; in assay [3], 0.467 µM; in assay [4] it was 0.464 µM; in assay [5], 0.63 µM; in assay [6], 0.644 µM; in assay [7] it was 0.544 µM. In addition, the GI50 in assay [8] was greater than 56.4 µM.
As for `CCOC(=O)Cc1c[nH]c(=S)[nH]c1=O`, the GI50 in assay [1], in assay [2], in assay [3], in assay [4], in assay [5] and in assay [6] was greater than 100 µM each time. Besides, the GI50 in assay [7] and in assay [8] was greater than 100 µM in each case. The TGI in assay [1], in assay [2], in assay [3], in assay [4], in assay [5] and in assay [6] was greater than 100 µM throughout. Moreover, the TGI in assay [7] and in assay [8] was greater than 100 µM throughout.
`CCN=C1C=CC(=C(c2ccc(N(C)C)cc2)c2ccc(N(C)C)cc2)c2ccccc21`: the GI50 is 0.0868 µM in assay [1]; 0.153 µM in assay [2]; 0.105 µM in assay [3]; 0.0297 µM in assay [4]; 0.241 µM in assay [5]; 0.0701 µM in assay [6]. Besides, the GI50 in assay [7] was 0.196 µM; in assay [8], 0.03 µM. Further, the TGI stood at 0.489 µM in assay [1]; 3.64 µM in assay [2]; 0.455 µM in assay [3]; 0.198 µM in assay [4]; 1.1 µM in assay [5]; 0.711 µM in assay [6]. For the same molecule, the TGI stood at 0.663 µM in assay [7] and 0.211 µM in assay [8].
